Results: patent US9006139B2, “Active compound combinations” (Bayer Intellectual Property GmbH, priority 2009, dated 2015)

Key:
Type in all cases: in vivo
Phytophthora infestans = assay: whole plant or invertebrate; conditions: Phytophthora infestans, 72 h; for pest or weed control at 1 ppm: read-out: Efficacy in % found, Table A, test 1, 1 ppm a.i.
Leptosphaeria nodorum = Leptosphaeria nodorum test (wheat)/preventive; conditions: Parastagonospora nodorum, 192 h, Table K, read-out: Efficacy in % found; for pest or weed control at 500 ppm: 500 ppm a.i.; for pest or weed control at 125 ppm: 125 ppm a.i.; for pest or weed control at 62.5 ppm: 62.5 ppm a.i.
Protocol: (§1) Solvent: 49 parts by weight of n,n-dimethylacetamid
(§2) Emulsifier: 1 part by weight of alkylaryl polyglycol ether
(§3) To produce a suitable preparation of active compound, 1 part by weight of active compound or active compound combination is mixed with the stated amounts of solvent and emulsifier, and the concentrate is diluted with water to the desired concentration. To test for preventive activity, young plants are sprayed with the preparation of active compound or active compound combination at the stated rate of application. After the spray coating has been dried, the plants are sprayed with a spore suspension of Leptosphaeria nodorum. The plants remain for 48 hours in an incubation cabinet at approximately 20° C. and a relative atmospheric humidity of approximately 100%. The plants are placed in the greenhouse at a temperature of approximately 22° C. and a relative atmospheric humidity of approximately 80%. The test is evaluated 8 days after the inoculation. 0% means an efficacy which corresponds to that of the untreated control, while an efficacy of 100% means that no disease is observed.

[1] = test system: Blumeria graminis fsp. tritici; assay: Blumeria test (wheat)/preventive; conditions: Table G; 62.5 ppm a.i.
Protocol: as §1, §2
To produce a suitable preparation of active compound, 1 part by weight of active compound or active compound combination is mixed with the stated amounts of solvent and emulsifier, and the concentrate is diluted with water to the desired concentration. To test for preventive activity, young plants are sprayed with the preparation of active compound or active compound combination at the stated rate of application. After the spray coating has been dried, the plants are dusted with spores of Blumeria graminis fsp. tritici. The plants are placed in the greenhouse at a temperature of approximately 18° C. and a relative atmospheric humidity of approximately 80% to promote the development of mildew pustules. The test is evaluated 7 days after the inoculation. 0% means an efficacy which corresponds to that of the untreated control, while an efficacy of 100% means that no disease is observed.

Sphaerotheca fuliginea = assay: Sphaerotheca test (cucumbers)/protective; conditions: Podosphaera fuliginea, 168 h, Table C, read-out: Efficacy in % found
Protocol: (§4) Solvent: 24.5 parts by weight of acetone
(§5) • 24.5 parts by weight of dimethylacetamide Emulsifier: 1 part by weight of alkylaryl polyglycol ether
To produce a suitable preparation of active compound, 1 part by weight of active compound is mixed with the stated amounts of solvent and emulsifier, and the concentrate is diluted with water to the desired concentration. To test for protect activity, young plants are sprayed with the preparation of active compound at the stated rate of application. After the spray coating has dried on, the plants are inoculated with an aqueous spore suspension of Sphaerotheca fuliginea. The plants are then placed in a greenhouse at approximately 23° C. and a relative atmospheric humidity of approximately 70%. The test is evaluated 7 days after the inoculation. 0% means an efficacy which corresponds to that of the control, while an efficacy of 100% means that no disease is observed.

Alternaria solani = assay: Alternaria test (tomatoes)/protective; conditions: Alternaria solani, 72 h, Table E, read-out: Efficacy in % found; for pest or weed control at 2 ppm / pest or weed control at 0.5 ppm: test 1; for pest or weed control at 2 ppm: 2 ppm a.i.; for pest or weed control at 0.5 ppm: 0.5 ppm a.i.
Protocol: as §4, §5
(§6) To produce a suitable preparation of active compound, 1 part by weight of active compound is mixed with the stated amounts of solvent and emulsifier, and the concentrate is diluted with water to the desired concentration. To test for protective activity, young plants are sprayed with the preparation of active compound at the stated rate of application. After the spray coating has dried on, the plants are inoculated with an aqueous spore suspension of Alternaria solani. The plants are then placed in an incubation cabinet at approximately 20° C. and a relative atmospheric humidity of 100%. The test is evaluated 3 days after the inoculation. 0% means an efficacy which corresponds to that of the control while an efficacy of 100% means that no disease is observed.

Botrytis cinerea = assay: Botrytis test (beans)/protective; conditions: Table F; for pest or weed control at 25 ppm / Efficacy in % found: test 1
Protocol: as §4, §5
To produce a suitable preparation of active compound, 1 part by weight of active compound is mixed with the stated amounts of solvent and emulsifier, and the concentrate is diluted with water to the desired concentration. To test for protective activity, young plants are sprayed with the preparation of active compound. After the spray coating has dried on, 2 small pieces of agar covered with growth of Botrytis cinerea are placed on each leaf. The inoculated plants are placed in a darkened chamber at 20° C. and a relative atmospheric humidity of 100%. 2 days after the inoculation, the size of the lesions on the leaves is evaluated. 0% means an efficacy which corresponds to that of the control, while an efficacy of 100% means that no disease is observed.

Venturia inaequalis = assay: Venturia test (apples)/protective; conditions: Table D
Protocol: as §4, §5
as §6, with “conidia” for “spore”, “the causal agent of apple scab (Venturia inaequalis) and” for “Alternaria solani. The plants are”, “remain for 1 day” for “placed”, “The plants are then placed in a greenhouse at approximately 21° C. and a relative atmospheric humidity of approximately 90%. The” for “The”, “10” for “3”, “control,” for “control”

Septoria tritici = assay: Septoria tritici-test (wheat)/preventive; conditions: Table H; 62.5 ppm a.i.
Protocol: as §1, §2
as §3, with “suspension of Septoria tritici. The plants” for “suspension of Leptosphaeria nodorum. The plants”, “of approximately 100% and afterwards for 60 hours at approximately 15° C. in a translucent incubation cabinet at a relative atmospheric humidity of approximately 100%. The” for “of approximately 100%. The”, “of approximately 15° C. and” for “of approximately 22° C. and”, “is evaluated 21 days after” for “is evaluated 8 days after”

Pyrenophora teres = assay: Pyrenophora teres-test (barley)/preventive
Protocol: as §1, §2
as §3, with “Pyrenophora teres.” for “Leptosphaeria nodorum.”, “20°” for “22°”

Plasmopara viticola = assay: Plasmopara test (grapevines)/protective; conditions: Table B
Protocol: as §4, §5
as §6, with “Plasmopara viticola and” for “Alternaria solani. The plants are”, “remain for 1 day” for “placed”, “The plant is subsequently placed for 4 days in a greenhouse at approximately 21° C. and a relative atmospheric humidity of approximately 90%. The plants are then misted and placed for 1 day in an incubation cabinet. The” for “The”, “6” for “3”, “control,” for “control”

[2] = Botrytis cinerea, 48 h, 25 ppm a.i., read-out: Efficacy in % found

C[C@@]1(c2ccc(Oc3ccccc3)cc2)OC(=O)N(Nc2ccccc2)C1=O (racemic) [(3.6), famoxadone] gave a pest or weed control at 2.5 ppm (Phytophthora infestans; read-out: Efficacy in % found, Table A, test 7, 2.5 ppm a.i.) of 31% and a pest or weed control at 500 ppm (Leptosphaeria nodorum) of 67%.
CCCC1COC(Cn2cncn2)(c2ccc(Cl)cc2Cl)O1 (centres unmarked) [(1.40), propiconazole] was tested, and the “Efficacy in % found” value [1] was 38%.
Work on OC(Cc1ccccc1Cl)(Cn1nc[nH]c1=S)C1(Cl)CC1 (centres unmarked) [(1.41), prothioconazole] yielded a pest or weed control at 0.5 ppm (Sphaerotheca fuliginea; test 1, 0.5 ppm a.i.) of 37%, a pest or weed control at 2 ppm (Alternaria solani) of 30% and a pest or weed control at 25 ppm (Botrytis cinerea; [2]) of 49%. The pest or weed control at 125 ppm (Leptosphaeria nodorum) was 88%.
For CC(C)(C)C(O)(CCc1ccc(Cl)cc1)Cn1cncn1 (centres unmarked) [(1.47), tebuconazole], the pest or weed control at 2 ppm (Sphaerotheca fuliginea; test 1, 2 ppm a.i.) was 50%, the pest or weed control at 2 ppm (Alternaria solani) was 35% and the pest or weed control at 25 ppm (Botrytis cinerea; [2]) was 4%. The pest or weed control at 125 ppm (Leptosphaeria nodorum) was 88%.
For Cn1cc(C(=O)Nc2ccc(F)cc2-c2ccc(Cl)c(Cl)c2)c(C(F)F)n1 [(2.2), bixafen], the “Efficacy in % found” value (Venturia inaequalis; test 2, 0.5 ppm a.i.) was 0% and the “Efficacy in % found” value (Septoria tritici) was 50%.
O=C(Nc1ccccc1-c1ccc(Cl)cc1)c1cccnc1Cl [(2.3), boscalid] was tested, and the “Efficacy in % found” value (Venturia inaequalis; test 1, 5 ppm a.i.) was 0%, the pest or weed control at 25 ppm (Botrytis cinerea; [2]) was 50% and the “Efficacy in % found” value (Pyrenophora teres; Table I1, 62.5 ppm a.i.) was 50%.
For O=C(NCCc1ncc(C(F)(F)F)cc1Cl)c1ccccc1C(F)(F)F [(2.6), fluopyram], the “Efficacy in % found” value (Venturia inaequalis; test 1, 1 ppm a.i.) was 0% and the “Efficacy in % found” value (Septoria tritici) was 90%.
For CC(C)C1C2CCC1c1c(NC(=O)c3cn(C)nc3C(F)F)cccc12 (centres unmarked) [(2.10), isopyrazam], the “Efficacy in % found” value (Venturia inaequalis; test 1, 1 ppm a.i.) was 28% and the “Efficacy in % found” value (Septoria tritici) was 80%.
With Cc1nn(C)c(F)c1C(=O)Nc1ccccc1C(C)CC(C)C (centres unmarked) [(2.19), penflufen] the “Efficacy in % found” value (Venturia inaequalis; test 1, 1 ppm a.i.) was 0%, the “Efficacy in % found” value (Botrytis cinerea; 50 ppm a.i.) was 65% and the “Efficacy in % found” value (Septoria tritici) was 50%.
With Cn1cc(C(=O)Nc2ccccc2C2CC2C2CC2)c(C(F)F)n1 (centres unmarked) [(2.21), sedaxane] the “Efficacy in % found” value (Venturia inaequalis; test 1, 1 ppm a.i.) was 24%, the “Efficacy in % found” value (Botrytis cinerea; 25 ppm a.i.) was 30% and the “Efficacy in % found” value (Pyrenophora teres; Table I1, 125 ppm a.i.) was 50%.
With Cc1ccc(-c2c(Cl)nc(C#N)n2S(=O)(=O)N(C)C)cc1 [(3.3), cyazofamid] the “Efficacy in % found” value (Plasmopara viticola; 1 ppm a.i.) was 0%.
Work on CO/N=C(/C1=NOCCO1)c1ccccc1Oc1ncnc(Oc2ccccc2Cl)c1F [(3.8), fluoxastrobin] yielded a pest or weed control at 1 ppm (Phytophthora infestans) of 30%, a pest or weed control at 0.5 ppm (Alternaria solani) of 40% and a pest or weed control at 25 ppm (Botrytis cinerea; [2]) of 8%. The pest or weed control at 62.5 ppm (Leptosphaeria nodorum) was 63%.
Molecule CO/N=C(/C(=O)OC)c1ccccc1COc1ccccc1C [(3.9), kresoxim-methyl] has a pest or weed control at 5 ppm (Sphaerotheca fuliginea; test 4, 5 ppm a.i.) of 52%, a pest or weed control at 2.5 ppm (Alternaria solani; test 2, 2.5 ppm a.i.) of 50% and a pest or weed control at 2.5 ppm (Botrytis cinerea; Botrytis cinerea, 48 h, test 3, 2.5 ppm a.i., read-out: Efficacy in % found) of 75%. For the same molecule, the “Efficacy in % found” value (Pyrenophora teres; Table I2, 62.5 ppm a.i.) was 67%.
In the case of COC(=O)N(OC)c1ccccc1COc1ccn(-c2ccc(Cl)cc2)n1 [(3.13), pyraclostrobin], the pest or weed control at 1 ppm (Phytophthora infestans) is reported as 58%, the “Efficacy in % found” value (Venturia inaequalis; test 1, 0.5 ppm a.i.) is reported as 38% and the pest or weed control at 0.5 ppm (Alternaria solani) is reported as 50%. It also gave a pest or weed control at 25 ppm (Botrytis cinerea; [2]) of 63% and a pest or weed control at 62.5 ppm (Leptosphaeria nodorum) of 88%.
In the case of CON=C(C(=O)OC)c1ccccc1CON=C(C)c1cccc(C(F)(F)F)c1 [(3.17), trifloxystrobin], the “Efficacy in % found” value (Venturia inaequalis; test 1, 0.5 ppm a.i.) is reported as 8%, the pest or weed control at 0.5 ppm (Alternaria solani) is reported as 30% and the pest or weed control at 25 ppm (Botrytis cinerea; [2]) is reported as 40%.
With CCC(C)(NC(=O)c1cc(Cl)c(C)c(Cl)c1)C(=O)CCl (centres unmarked) [(4.9), zoxamide] the pest or weed control at 1 ppm (Phytophthora infestans) was 58% and the “Efficacy in % found” value (Plasmopara viticola; 2 ppm a.i.) was 6%.
CN(C)C(=S)SSC(=S)N(C)C [(5.25), thiram] was tested, and the pest or weed control at 500 ppm (Leptosphaeria nodorum) was 33%.
Cc1cc(C2CC2)nc(Nc2ccccc2)n1 [(7.3), cyprodinyl] was tested, and the pest or weed control at 10 ppm (Botrytis cinerea; Botrytis cinerea, 48 h, test 2, 10 ppm a.i., read-out: Efficacy in % found) was 0% and the “Efficacy in % found” value (Pyrenophora teres; Table I1, 125 ppm a.i.) was 67%.
For C#CCOc1ccc(CCNC(=O)C(OCC#C)c2ccc(Cl)cc2)cc1OC (centres unmarked) [(9.5), mandipropamid], the “Efficacy in % found” value (Plasmopara viticola; 1 ppm a.i.) was 57%.
O=[N+]([O-])c1cc(C(F)(F)F)c(Cl)c([N+](=O)[O-])c1Nc1ncc(C(F)(F)F)cc1Cl [(14.2), fluazinam] was tested, and the pest or weed control at 500 ppm (Leptosphaeria nodorum) was 89%.
